{"source": "patent US10952940B2", "about": "“Reagents and methods for mineralization of tooth enamel” (UNIVERSITY OF WASHINGTON, priority 2016, dated 2021)", "key": {"[1]": {"experiment": "Remineralization of artificial white spot lesions, SEM and EDXS analyses of new mineral layer", "design": "species or system human", "conditions": "for thickness of newly formed mineral layer: SEM of cross-sectioned samples, 1 hour treatment", "excerpt": "Extracted teeth with no visible white spot lesions, caries, or any other kind of restorations were collected from dental clinics around the King County area (WA, USA) and disinfected in 10% aqueous bleach solutions. Prior to the experiments, the teeth were cleaned to remove visible blood, gross debris and soft connective tissue using a dental scaler under a light microscope.\nEnamel was demineralized to create artificial lesions to mimic white spot lesions and/or incipient caries. The teeth were covered by lacquer leaving a 4-mm wide square window in the enamel close to cemento-enamel junction. The exposed areas of 4×4 mm enamel were treated with a cocktail of acetic acid/CaCl2/KH2PO4 for 2 weeks to establish up to 200 μm deep artificially created non-cavitated white spot lesions (WSL). Samples were then divided into control and test groups. Test groups were treated either with peptide, fluoride, or combination of both (Table 5).\nPrior to remineralization, samples requiring peptide treatments (Groups 5 & 6) were incubated in 50 μL of 0.8 mM peptide dissolved in 50 mM Tris Buffer Solution (TBS) (pH:7.4) for 10 minutes at 37° C. Next, treatment samples were exposed to 50 mM TBS containing Ca^2+/PO4^3− (Groups 2, 5) or Ca^2+/PO4^3−/F^− (Groups 3, 4, 6) at concentrations as listed in Table 5 for 1 hour at 37° C., then rinsed with de-ionized (DI) water, dried by forced air and stored at room temperature until characterization.\nAfter re-mineralization experiments were completed, secondary electron imaging (SEI) in the scanning electron microscope (SEM) was used to characterize the surface morphology and to show the thickness of newly formed mineral layer in cross-sections where applicable. Specimen preparation for SEM involved cutting a notch on the back side using a low speed saw (IsoMet™, Buehler, Lake Bluff, Ill., USA) before they were subjected to WSL formation and remineralization as described above. After remineralization step was completed, specimens were rinsed with DI water, air dried gently (<5 PSI), then carefully fractured into 2 pieces along the notch. One of the fractured pieces was mounted on a SEM stub with the mineralizing surface facing up for imaging the surface morphology and second piece was mounted with the cross-section facing up to show the thickness of mineral layer. Mounted specimens were then stored in vacuum for at least 2 hours to remove residual moisture which were then sputter coated with 5-nm thick platinum (SPI-Sputter Module Coater, SPI Supplies, West Chester, Pa., USA). SEM characterization was performed using an FEI Sirion microscope (Sirion, FEI, Hillboro, Oreg., USA) operating at 10 kV acceleration voltage. The chemical composition was measured by an onboard energy dispersive X-ray spectroscopy (EDXS) system (X-Max^N Si drift detector with AZtecEnergy software package, Oxford Instruments, Abingdon, Oxfordshire, UK). The measurements for each group were pooled from 5 specimens per group. The average values and standard deviations were calculated and expressed as the mean±standard error."}, "[2]": {"experiment": "Vicker's microhardness of mineralized tooth surface", "design": "species or system human", "conditions": "10 kg applied load, on the surface, n ≥ 20", "experimental": "In addition to nanoindenation measurements, microhardness was also performed on the surface to quantitatively assess the mechanical properties of the mineral layers with larger areas and volumes including the underlying enamel as a composite. Vicker's microhardness was performed on at room temperature using Vicker's indenter on a Wilson Hardness Tukon 1202 microhardness tester at 10 kg applied load (Illinois Tool Works, Lake Bluff, Ill.). At least 20 measurements per group were recorded for obtaining an average and statistical analysis.\nMicrohardness and nanoindentation differ in both loading range and measurement method as shown in the schematic in FIG. 14 and, for these reasons, both were used in the present work to assess the mechanical durability of the remineralized layers on artificially formed lesions on intact human teeth. In the case of microhardness (Vickers indenter), the measurement was a static one in that the load was applied, released and hardness was obtained by measuring the post-indentation projected area of the indented region (foot print). This method therefore provides information about only the plastically deformed response (plastic deformation) of the material. Furthermore the load applied in this study was 10 kg, lowest allowable by the instrument."}, "[3]": {"conditions": "EDXS, 1 hour treatment at 37° C."}}, "data": [{"sequence": "SYENSHSQAINVDRT [shADP5, 15-amino acid long amelogenin-derived peptide, shortened human ADP5]", "values": [{"measurement": "delivery of fluoride into the mineral layer", "setting": "[1]; EDXS", "value": "allows the delivery and incorporation of fluoride ions into the remineralized layer even at low F concentrations"}, {"measurement": "Possible Mineral Formed", "setting": "[1]; [3]", "value": "Only HAP"}, {"measurement": "Remineralized Layer Ca/O", "setting": "[1]; [3]", "value": "0.56 ± 0.13"}, {"measurement": "Remineralized Layer Ca/P", "setting": "[1]; EDXS, 1 hour treatment at 37° C., listed as 6. Peptide only", "value": "1.56 ± 0.12"}, {"measurement": "Remineralized Layer Ca/P", "setting": "[1]; EDXS, 1 hour treatment at 37° C., listed as Group 6", "value": "1.54±0.12"}, {"measurement": "Remineralized Layer Ca/P", "setting": "[1]; EDXS, 1 hour treatment at 37° C., listed as Group-6", "value": 1.56}, {"measurement": "thickness of newly formed mineral layer", "setting": "[1]; listed as Group 6", "value": 10, "unit": "μm"}, {"measurement": "thickness of newly formed mineral layer", "setting": "[1]; listed as Group-6", "value": "> 10", "unit": "μm"}, {"measurement": "thickness of newly formed mineral layer", "setting": "[1]; listed as Peptide alone", "value": 10, "unit": "μm"}, {"measurement": "Hardness (Vicker's microhardness)", "setting": "[2]; listed as Group 6 (shADP5)", "value": "140.6 +/− 11.3 HV10, MPa"}, {"measurement": "Hardness (Vicker's microhardness)", "setting": "[2]; listed as group 6", "value": "140.6+11.3 HV10, MPa"}]}]}
